One assay has as its target AXL (Homo sapiens (Human), UniProt P30530). Briefly: AXL autophosphorylation ELISA in A-172 cells. It is filed as cell-based. The settings on record: cellular, Gas6 stimulated. Summed up: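 Serum-starved (24 h) A-172 glioblastoma cells pretreated 1 h with compounds (8-point curve, 0.3% DMSO), then stimulated 15 min with 1 μg/mL Gas6. Lysate phospho-AXL measured by sandwich ELISA against a phospho-AXL standard; IC50 from 4-parameter logistic fit between DMSO and reference-inhibitor controls.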

Another assay concerns the target Mer (Homo sapiens (Human), UniProt Q12866). Briefly: Mer autophosphorylation ELISA in transient transfected 293A cells. It is filed as cell-based. The settings on record: cellular, MERTK transfected 293A cells. The protocol:
293A cells (Thermo Fisher #R70507) were seeded at 1.5×10^6 cells/well onto 100 mm dish (Greiner #664169), in DMEM (Thermo Fisher #11995-040) containing 10% FBS (Thermo Fisher #26140-079), 1% MEM NEAA (Thermo Fisher #11140-050), 1% GlutaMax (Thermo Fisher #35050-061), and 1% Penicillin Streptomycin (Thermo Fisher #15140-122). 293A cells were incubated at 37° C., 5% CO2 for 24 h and then transfected with 6 μg MERTK DNA (Genecopoeia #EX-Z8208-M02) using TransIT LT1 transfection reagent (Mirus-Bio #MIR2305). After 24 h incubation, the transfected 293A cells were seeded at 1×10^5 cells/well onto 96-well plates (Corning #3904) in DMEM growth medium overnight. Test compounds were serially diluted to produce an 8-point dose curve in fresh serum-free medium to a final concentration of 0.3% DMSO (vehicle) and added to the cells and incubated for 1 h. Cells were then immediately lysed with 150 μL of cold 1× lysis buffer [20 mM Tris, 137 mM sodium chloride, 2 mM EDTA, 10% glycerol, 1% NP-40 alternative, 1 mM activated sodium orthovanadate, 1 mM PefaBloc SC (Sigma-Aldrich #11429868001), protease/phosphatase inhibitor tablet (Thermo Fisher #A32959)]. Lysates were clarified by centrifugation and 50 μL/well added into the human phospho-Mer DuoSet IC ELISA (R&D Systems #DYC2579-2). Assay was performed according to manufacturer's instructions and sample phospho-Mer concentrations were extrapolated using human phospho-Mer control (R&D Systems #841793) as a standard. Positive control wells (100% activity) contained DMSO-treated cell lysates. Negative control wells (0% activity) contained reference inhibitor-treated cell lysates. IC50 values were calculated by nonlinear regression analysis using a 4-parameter logistic curve fit in ActivityBase XE (IDBS).
For orientation: In an ELISA, binding on a coated surface is turned into a signal by an enzyme label.

The target in another assay is Met (Homo sapiens (Human), UniProt P08581). Briefly: Met autophosphorylation ELISA in PC-3 cells. It is filed as cell-based. The settings on record: cellular, HGF stimulated, read-out: c-Met IC50. In short, it runs like this: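 PC-3 cells serum-starved 3 h, treated 1 h with 8-point compound series (0.3% DMSO), then stimulated with 100 ng/mL human HGF for 10 min. Lysate phospho-Met (panTyr) measured by sandwich ELISA; IC50 from 4-parameter logistic fit against DMSO and reference-inhibitor controls.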

A further assay addresses KDR (Homo sapiens (Human), UniProt P35968). Briefly: KDR autophosphorylation ELISA in HUVEC cells. It is filed as cell-based. To be noted: cellular, VEGF165 stimulated. In short, it runs like this: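 Read-out: phospho-KDR ELISA on cell lysates, quantified against a phospho-KDR standard, normalised to VEGF-stimulated DMSO (100%) and unstimulated (0%) wells, IC50 by 4-parameter fit. Cells were 24 h serum-starved HUVEC given compound for 1 h, then 100 ng/mL VEGF165 for 5 min.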

The target in assay [1] is Human Axl (residues H473-A894 with Q764R) (Homo sapiens (Human), UniProt P30530, Q764R). Briefly: Human AXL kinase assay (33P radiometric, KinaseProfiler). The assay is classed as biochemical. The settings on record: 10 μM ATP. The method, then:
(§1) Kinase activity and compound inhibition were investigated using the ^33P-Phosphoryl transfer radiometric kinase assay, performed using the KinaseProfiler™ service of Eurofins Pharma Discovery Services UK Limited. Dose-response experiments were performed using nine compound concentrations in a 96-well microtiter plate. For each assay, all compounds were prepared to a 50× final assay concentration (50 μM) in 100% DMSO, then diluted in a half-log series, with the final top concentration at 1 μM. This working stock of the compound was added to the assay well as the first component in the reaction, followed by the remaining components as detailed in the following assay protocols below. The positive control wells (100% kinase activity) contain all components of the reaction including 2% DMSO (control for solvent effects), except the compound of interest. Blank wells contain all components of the reaction, with the reference inhibitor, staurosporine. This reference compound was used to abolish kinase activity and generated the 0% kinase activity base-line. IC50 values were calculated by nonlinear regression analysis using the sigmoidal dose-response (variable slope) curve fit on XLFit version 5.3 (ID Business Solutions).
Human Axl (residues H473-A894 with Q764R, 161 nM) was incubated with 8 mM MOPS pH 7.0, 0.2 mM EDTA, 250 μM KKSRGDYMTMQIG (SEO ID NO. 43) 10 mM magnesium acetate and 10 μM [γ-33P-ATP]. The reaction was initiated by the addition of the Mg/ATP mix. After incubation for 40 minutes at room temperature, the reaction was stopped by the addition of phosphoric acid to a concentration of 0.5%. A reaction aliquot of 10 μL was then spotted onto a P30 filtermat and washed four times for 4 minutes in 0.425% phosphoric acid and once in methanol prior to drying and scintillation counting. Incorporated ^33P was measured using the Wallac Microbeta scintillation counter (Perkin Elmer).

Assay [2] concerns the target Human Mer (residues R557-E882 with H628Q and R794A) (Homo sapiens (Human), UniProt Q12866). Briefly: Human Mer kinase assay (33P radiometric, KinaseProfiler). It is filed as biochemical. The settings on record: 10 μM ATP. The method, then: as §1
Human Mer (residues R557-E882 with H628Q and R794A, 0.7 nM) was incubated with 8 mM MOPS pH 7.0, 0.2 mM EDTA, 30 mM NaCl, 250 μM GGMEDIYFEFMGGKKK (SEO ID NO. 44). 10 mM magnesium acetate, and 10 μM [γ-^33P-ATP]. The reaction was initiated by the addition of the Mg/ATP mix. After incubation for 40 minutes at room temperature, the reaction was stopped by the addition of phosphoric acid to a concentration of 0.5%. A reaction aliquot of 10 μL was then spotted onto a P30 filtermat and washed four times for 4 minutes in 0.425% phosphoric acid and once in methanol prior to drying and scintillation counting. Incorporated ^33P was measured using the Wallac Microbeta scintillation counter (Perkin Elmer).

Assay [3] has as its target Human Met (residues R974-S1390 with A1209G and V1290L) (Homo sapiens, UniProt P08581). Briefly: Human Met kinase assay (33P radiometric, KinaseProfiler). It is filed as biochemical. The settings on record: 10 μM ATP, read-out: c-Met IC50. The method, then: as §1
Human Met (residues R974-S1390 with A1209G and V1290L, 3.4 nM) was incubated with 8 mM MOPS pH 7.0, 0.2 mM EDTA, 250 μM KKKGQEEEYVFIE (SEO ID NO. 45), 1 mM sodium orthovanadate, 5 mM […], 10 mM magnesium acetate, and 10 μM [γ-33P-ATP]. The reaction was initiated by the addition of the Mg/ATP mix. After incubation for 40 minutes at room temperature, the reaction was stopped by the addition of phosphoric acid to a concentration of 0.5%. A reaction aliquot of […] was then spotted onto a P30 filtermat and washed four times for 4 minutes in 0.425% phosphoric acid and once in methanol prior to drying and scintillation counting. Incorporated 33P was measured using the Wallac Microbeta scintillation counter (Perkin Elmer).

The source of these data is patent US11542259B2, “Compounds for the treatment of kinase-dependent disorders” (Exelixis, Inc., priority 2018, dated 2023).

Sequence of Human Mer (residues R557-E882 with H628Q and R794A) (Q12866 557-882, stated change not applied): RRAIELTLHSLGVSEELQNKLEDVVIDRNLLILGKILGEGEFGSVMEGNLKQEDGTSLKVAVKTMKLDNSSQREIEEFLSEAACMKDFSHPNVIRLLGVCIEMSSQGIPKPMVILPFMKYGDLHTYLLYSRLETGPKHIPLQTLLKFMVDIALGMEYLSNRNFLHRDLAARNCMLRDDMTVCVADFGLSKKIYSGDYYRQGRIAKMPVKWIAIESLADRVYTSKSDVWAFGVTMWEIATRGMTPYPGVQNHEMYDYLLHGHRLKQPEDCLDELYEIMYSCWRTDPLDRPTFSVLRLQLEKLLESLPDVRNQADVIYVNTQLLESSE
Sequence of KDR (P35968 20-1356): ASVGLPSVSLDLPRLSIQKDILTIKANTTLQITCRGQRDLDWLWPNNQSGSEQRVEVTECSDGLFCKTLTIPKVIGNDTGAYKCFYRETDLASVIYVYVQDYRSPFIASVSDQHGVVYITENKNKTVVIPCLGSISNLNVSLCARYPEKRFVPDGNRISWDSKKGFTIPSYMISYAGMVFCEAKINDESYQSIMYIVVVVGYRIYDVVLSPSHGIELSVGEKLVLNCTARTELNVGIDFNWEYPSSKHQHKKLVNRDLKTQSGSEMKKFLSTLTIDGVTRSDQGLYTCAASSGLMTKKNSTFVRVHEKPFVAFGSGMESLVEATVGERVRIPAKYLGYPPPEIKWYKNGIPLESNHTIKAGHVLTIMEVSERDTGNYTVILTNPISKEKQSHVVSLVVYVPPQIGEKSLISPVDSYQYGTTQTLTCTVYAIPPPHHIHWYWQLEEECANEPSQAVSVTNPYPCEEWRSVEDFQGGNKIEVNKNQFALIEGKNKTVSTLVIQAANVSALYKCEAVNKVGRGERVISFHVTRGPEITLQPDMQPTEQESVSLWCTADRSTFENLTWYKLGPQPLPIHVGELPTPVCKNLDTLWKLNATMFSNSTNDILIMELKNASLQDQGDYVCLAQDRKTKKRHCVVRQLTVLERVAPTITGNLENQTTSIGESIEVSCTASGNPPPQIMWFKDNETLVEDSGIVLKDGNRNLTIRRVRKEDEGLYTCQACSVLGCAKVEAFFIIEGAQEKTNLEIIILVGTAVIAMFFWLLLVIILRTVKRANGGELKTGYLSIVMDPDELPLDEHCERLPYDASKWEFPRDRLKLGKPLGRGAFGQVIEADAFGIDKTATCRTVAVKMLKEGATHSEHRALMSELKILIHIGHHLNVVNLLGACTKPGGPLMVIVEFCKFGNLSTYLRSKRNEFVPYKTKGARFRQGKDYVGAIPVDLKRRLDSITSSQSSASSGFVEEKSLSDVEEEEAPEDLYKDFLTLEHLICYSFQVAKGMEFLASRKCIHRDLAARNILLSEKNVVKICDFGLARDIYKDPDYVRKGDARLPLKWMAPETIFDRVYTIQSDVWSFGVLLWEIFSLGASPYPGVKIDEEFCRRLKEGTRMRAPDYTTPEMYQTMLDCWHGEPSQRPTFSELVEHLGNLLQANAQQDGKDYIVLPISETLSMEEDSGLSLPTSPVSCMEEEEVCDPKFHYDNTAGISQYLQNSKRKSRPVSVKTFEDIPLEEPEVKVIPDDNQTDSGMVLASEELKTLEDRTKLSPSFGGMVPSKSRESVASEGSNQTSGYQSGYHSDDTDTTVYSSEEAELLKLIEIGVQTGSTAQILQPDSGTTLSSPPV
Sequence of Mer (Q12866 21-999): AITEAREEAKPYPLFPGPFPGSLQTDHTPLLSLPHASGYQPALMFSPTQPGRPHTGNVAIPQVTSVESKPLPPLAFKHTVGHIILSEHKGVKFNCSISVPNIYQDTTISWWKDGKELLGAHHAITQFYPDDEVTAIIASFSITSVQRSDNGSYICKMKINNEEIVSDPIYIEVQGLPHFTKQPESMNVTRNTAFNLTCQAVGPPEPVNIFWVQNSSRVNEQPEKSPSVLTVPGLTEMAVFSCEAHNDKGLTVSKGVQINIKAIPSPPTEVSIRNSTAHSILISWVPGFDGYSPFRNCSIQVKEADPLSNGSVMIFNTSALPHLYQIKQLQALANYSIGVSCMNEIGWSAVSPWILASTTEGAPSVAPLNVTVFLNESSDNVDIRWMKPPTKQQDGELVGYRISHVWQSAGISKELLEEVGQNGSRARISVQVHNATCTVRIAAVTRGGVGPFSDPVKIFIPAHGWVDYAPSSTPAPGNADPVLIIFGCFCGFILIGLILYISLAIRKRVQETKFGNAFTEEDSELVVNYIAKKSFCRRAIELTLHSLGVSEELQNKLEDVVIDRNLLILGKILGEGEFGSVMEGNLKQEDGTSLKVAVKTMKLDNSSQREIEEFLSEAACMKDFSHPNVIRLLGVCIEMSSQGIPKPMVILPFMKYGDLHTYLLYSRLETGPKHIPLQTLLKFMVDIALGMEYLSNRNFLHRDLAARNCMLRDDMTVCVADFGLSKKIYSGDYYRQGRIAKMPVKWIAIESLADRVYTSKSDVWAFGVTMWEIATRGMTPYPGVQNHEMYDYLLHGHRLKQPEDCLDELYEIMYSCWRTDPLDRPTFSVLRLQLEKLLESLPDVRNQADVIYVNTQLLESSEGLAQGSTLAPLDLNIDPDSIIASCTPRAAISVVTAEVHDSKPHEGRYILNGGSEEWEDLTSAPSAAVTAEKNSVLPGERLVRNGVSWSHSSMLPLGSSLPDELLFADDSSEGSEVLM
Sequence of Met (P08581 25-1390): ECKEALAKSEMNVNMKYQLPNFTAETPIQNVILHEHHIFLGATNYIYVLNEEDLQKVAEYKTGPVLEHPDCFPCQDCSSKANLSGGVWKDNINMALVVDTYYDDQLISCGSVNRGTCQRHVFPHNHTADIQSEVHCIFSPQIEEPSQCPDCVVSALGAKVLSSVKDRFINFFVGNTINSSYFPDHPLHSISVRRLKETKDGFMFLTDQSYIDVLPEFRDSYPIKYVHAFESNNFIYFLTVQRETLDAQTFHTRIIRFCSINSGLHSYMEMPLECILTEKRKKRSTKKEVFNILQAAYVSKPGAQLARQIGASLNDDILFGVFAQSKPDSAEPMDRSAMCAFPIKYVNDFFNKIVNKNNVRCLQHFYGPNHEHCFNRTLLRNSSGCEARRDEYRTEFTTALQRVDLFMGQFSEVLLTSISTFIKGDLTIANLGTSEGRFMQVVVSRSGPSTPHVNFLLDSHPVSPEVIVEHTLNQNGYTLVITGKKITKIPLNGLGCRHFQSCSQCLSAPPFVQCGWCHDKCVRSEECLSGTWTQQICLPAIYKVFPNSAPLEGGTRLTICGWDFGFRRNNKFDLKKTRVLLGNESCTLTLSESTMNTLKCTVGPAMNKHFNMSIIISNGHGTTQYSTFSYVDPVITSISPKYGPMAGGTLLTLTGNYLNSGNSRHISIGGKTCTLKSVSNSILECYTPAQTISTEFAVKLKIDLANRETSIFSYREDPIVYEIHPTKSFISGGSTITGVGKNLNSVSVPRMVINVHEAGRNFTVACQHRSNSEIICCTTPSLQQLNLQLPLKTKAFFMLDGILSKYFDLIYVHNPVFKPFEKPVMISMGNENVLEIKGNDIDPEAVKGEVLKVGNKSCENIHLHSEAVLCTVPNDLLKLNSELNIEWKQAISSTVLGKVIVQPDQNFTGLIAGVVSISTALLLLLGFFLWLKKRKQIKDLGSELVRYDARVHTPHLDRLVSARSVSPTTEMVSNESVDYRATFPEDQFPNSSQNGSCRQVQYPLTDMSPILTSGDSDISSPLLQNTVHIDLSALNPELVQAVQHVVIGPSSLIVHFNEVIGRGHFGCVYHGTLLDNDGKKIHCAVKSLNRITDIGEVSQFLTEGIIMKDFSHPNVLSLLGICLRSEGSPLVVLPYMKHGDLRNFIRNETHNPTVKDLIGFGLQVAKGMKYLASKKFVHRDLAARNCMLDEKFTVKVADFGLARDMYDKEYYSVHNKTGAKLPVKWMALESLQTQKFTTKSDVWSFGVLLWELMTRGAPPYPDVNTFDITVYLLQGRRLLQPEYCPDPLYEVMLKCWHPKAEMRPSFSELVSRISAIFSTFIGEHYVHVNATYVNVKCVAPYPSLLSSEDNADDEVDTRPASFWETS
Sequence of AXL (P30530 26-894): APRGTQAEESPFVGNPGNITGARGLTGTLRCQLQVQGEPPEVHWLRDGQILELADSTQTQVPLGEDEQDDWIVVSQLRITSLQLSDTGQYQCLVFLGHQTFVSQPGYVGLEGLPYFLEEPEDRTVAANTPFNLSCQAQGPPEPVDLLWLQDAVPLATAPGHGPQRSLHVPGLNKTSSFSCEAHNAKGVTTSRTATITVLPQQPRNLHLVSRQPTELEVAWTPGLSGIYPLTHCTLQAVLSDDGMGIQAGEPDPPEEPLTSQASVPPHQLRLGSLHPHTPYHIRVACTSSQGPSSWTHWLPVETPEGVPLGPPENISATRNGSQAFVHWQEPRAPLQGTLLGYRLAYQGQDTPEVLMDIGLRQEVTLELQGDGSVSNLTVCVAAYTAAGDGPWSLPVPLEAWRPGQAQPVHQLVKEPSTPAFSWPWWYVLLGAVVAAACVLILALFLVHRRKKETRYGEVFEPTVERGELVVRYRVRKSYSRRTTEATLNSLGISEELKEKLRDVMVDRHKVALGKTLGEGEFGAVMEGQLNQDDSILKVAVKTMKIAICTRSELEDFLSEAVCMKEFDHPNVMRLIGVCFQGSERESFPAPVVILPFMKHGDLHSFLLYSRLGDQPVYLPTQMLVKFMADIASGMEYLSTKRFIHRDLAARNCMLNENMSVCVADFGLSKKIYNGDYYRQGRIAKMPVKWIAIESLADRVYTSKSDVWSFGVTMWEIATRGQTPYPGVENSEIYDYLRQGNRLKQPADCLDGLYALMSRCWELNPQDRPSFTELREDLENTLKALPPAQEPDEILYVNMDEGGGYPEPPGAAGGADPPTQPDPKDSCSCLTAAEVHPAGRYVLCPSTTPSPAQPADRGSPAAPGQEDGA

One may read the IC50 as the point on the concentration scale where inhibition reaches its midpoint. For the molecule `COc1cc2nccc(Oc3ccc(NC(=O)C4(C(=O)Nc5ccc(F)cc5)CC4)cc3)c2cc1C(=O)NOCCO` [Compound 27, 1-N′-(4-fluorophenyl)-1-N-[4-[6-(2-hydroxyethoxycarbamoyl)-7-methoxyquinolin-4-yl]oxyphenyl]cyclopropane-1,1-dicarboxamide], the IC50 against AXL was at most 0.01 µM; against Mer, 0.01 to 0.1 µM; on Met, 0.01 to 0.1 µM; on KDR, at most 0.01 µM.
Take `CNS(=O)(=O)c1cc2c(Oc3ccc(NC(=O)C4(C(=O)Nc5ccc(F)cc5)CC4)cc3)ccnc2cc1OC` [Compound 207, 1-N′-(4-Fluorophenyl)-1-N-[4-[7-methoxy-6-(methylsulfamoyl)quinolin-4-yl]oxyphenyl]cyclopropane-1,1-dicarboxamide]: the IC50 against AXL, on Mer, at Met and against KDR was 0.01 to 0.1 µM in each case.
As to `CC(O)COc1cc2nccc(Oc3ccc(NC(=O)C4(C(=O)Nc5ccc(F)cc5)CC4)cc3)c2cc1-c1ncco1` (stereo not shown) [Compound 125, 1-N′-(4-Fluorophenyl)-1-N-[4-[7-(2-hydroxypropoxy)-6-(1,3-oxazol-2-yl)quinolin-4-yl]oxyphenyl]cyclopropane-1,1-dicarboxamide], the 50% inhibitory concentration (IC50) against AXL was at most 0.01 µM; against Mer, at most 0.01 µM; on Met, 0.01 to 0.1 µM; at KDR, 0.01 to 0.1 µM.
As to `CNC(=O)c1cc2c(Oc3ccc(NC(=O)C4(C(=O)Nc5ccc(F)cc5OC)CC4)cc3F)ccnc2cc1OC` [Compound 268, 1-N-[3-Fluoro-4-[7-methoxy-6-(methylcarbamoyl)quinolin-4-yl]oxyphenyl]-1-N′-(4-fluoro-2-methoxyphenyl)cyclopropane-1,1-dicarboxamide], the IC50 at AXL is at most 0.01 µM; against Mer, 0.01 to 0.1 µM; at Met, 0.01 to 0.1 µM; on KDR it was at most 0.01 µM.
On to `CNC(=O)c1cc2c(Oc3ccc(NC(=O)C4(C(=O)Nc5ccc(F)cc5OC(C)C)CC4)cc3F)ccnc2cc1OC` [Compound 269, 1-N-[3-Fluoro-4-[7-methoxy-6-(methylcarbamoyl)quinolin-4-yl]oxyphenyl]-1-N′-(4-fluoro-2-propan-2-yloxyphenyl)cyclopropane-1,1-dicarboxamide], for which the concentration for half-maximal inhibition (IC50) on AXL lay in the range of 0.01 to 0.1 µM; at Mer it was 0.01 to 0.1 µM; on Met, 0.1 to 0.3 µM; at KDR, 0.01 to 0.1 µM.
As for `COc1cc2nccc(Oc3ccc(NC(=O)C4(C(=O)Nc5ccc(F)cc5)CC4)cc3)c2cc1P(C)(C)=O` [Compound 51, 1-N-[4-(6-Dimethylphosphoryl-7-methoxyquinolin-4-yl)oxyphenyl]-1-N′-(4-fluorophenyl)cyclopropane-1,1-dicarboxamide], the IC50 at AXL was in the range of 0.01 to 0.1 µM; on Mer it was 0.1 to 0.3 µM; on Met it was 0.01 to 0.1 µM; against KDR it was 0.1 to 0.3 µM.
Consider `COc1cc2nccc(Oc3ccc(NC(=O)C4(C(=O)Nc5ccc(F)cc5)CC4)cc3)c2cc1C(=O)O` [Compound 6, 4-[4-[[1-[(4-fluorophenyl)carbamoyl]-cyclopropanecarbonyl]amino]-phenoxy]-7-methoxyquinoline-6-carboxylic acid], for which the IC50 is 0.1 to 1 µM in assay [1]; 0.01 to 0.1 µM in assay [2]; at most 0.01 µM in assay [3]; over 0.3 µM on Met; over 0.3 µM against KDR.
For the molecule `CNC(=O)c1cc2nccc(Oc3cc(Cl)c(NC(=O)C4(C(=O)Nc5ccc(F)cc5)CC4)cc3F)c2cc1C` [Compound 291, 1-N′-[2-Chloro-5-fluoro-4-[6-methyl-7-(methylcarbamoyl)quinolin-4-yl]oxyphenyl]-1-N-(4-fluorophenyl)cyclopropane-1,1-dicarboxamide], the IC50 at AXL is 0.01 to 0.1 µM; against Mer, 0.01 to 0.1 µM; at Met, 0.01 to 0.1 µM; against KDR, over 0.3 µM.
Regarding `COc1cc2c(Oc3ccc(NC(=O)C4(C(=O)Nc5ccc(F)cc5)CC4)cc3)ccnc2cc1C(=O)O` [Compound 151, 4-[4-[[1-[(4-fluorophenyl)carbamoyl]cyclopropanecarbonyl]amino]phenoxy]-6-methoxyquinoline-7-carboxylic acid], the IC50 is 0.1 to 1 µM in assay [1], 0.01 to 0.1 µM in assay [2], 0.01 to 0.1 µM in assay [3] and over 0.3 µM against KDR.
For `Cc1cc2c(Oc3ccc(NC(=O)C4(C(=O)Nc5ccc(F)cc5)CC4)cc3)ccnc2cc1C(=O)O` [Compound 141, 4-[4-[[1-[(4-fluorophenyl)carbamoyl]cyclopropanecarbonyl]amino]phenoxy]-6-methylquinoline-7-carboxylic acid], the IC50 in assay [1], in assay [2] and in assay [3] was over 1 µM in each case.
Turning to `NC(=O)c1cc2c(Oc3ccc(NC(=O)C4(C(=O)Nc5ccc(F)cc5)CC4)cc3)ccnc2cc1Cl` [Compound 68, 1-N-[4-(6-carbamoyl-7-chloroquinolin-4-yl)oxyphenyl]-1-N′-(4-fluorophenyl)cyclopropane-1,1-dicarboxamide], the IC50 in assay [1] lay within 0.1 to 1 µM; in assay [2], 0.01 to 0.1 µM; in assay [3], 0.01 to 0.1 µM.
